This note sets out measurements from US20250082656A1, “DOSAGE REGIMENS FOR TREATMENT OF DENGUE INFECTION” (Atea Pharmaceuticals, Inc., priority 2022, published 2025).

Some results are limits rather than exact numbers.

Series [1] addresses T1, DENV1 NS5 (Dengue virus type 1, UniProt P17763). As to the kind of experiment: Nucleotide analogue incorporation / discrimination assay, DENV1 NS5. Particulars: GTP for AT-9010 and AT-9002, UTP for SOF-TP. The series is classed as biochemical. As for the experimental part:
(§1) The chain-terminating efficiency of Compound 5 was measured in competitive nucleotide incorporation assays using all four DENV serotypes. […] In comparison, sofosbuvir triphosphate is incorporated into the RNA less than 1 time for every 100 UTP (native uridine triphosphate) incorporations.
(§2) Measurements and quantitations were as in FIG. 19B.
(§3) DENV NS5 was pre-incubated with the annealed P10/T20 RNA in an assembly buffer containing 20 mM HEPES pH 7.5, 10% glycerol, 5 mM MgCl2, and 5 mM DTT for 10 min at 30° C. to create an active RNA elongation complex.
(§4) Reactions were started by adding AT-9010 with either all four NTPs or UTP, ATP, and CTP only.
(§5) Single nucleotide incorporation was tested as follows. Reactions were started by adding the corresponding NTP or analogue. Final concentrations were 1 μM NS5, 0.25 μM P10/T20, 100 μM NTP or analogue in a final buffer containing 20 mM HEPES pH 7.5, 15% glycerol, 5 mM MgCl2, and 5 mM DTT.
(§6) Reactions were quenched at the designated time points in 3× volume FBD stop solution (formamide, 10 mM EDTA) and analyzed on 20% acrylamide-bisacrylamide (19:1) […] sequencing gels. RNA products were visualized using a Typhoon FluorImager then analyzed and quantified using ImageQuant software.

The target in series [2] is T2, DENV4 NS5 (Dengue virus type 4, UniProt P09866). As to the kind of experiment: Nucleotide analogue incorporation / discrimination assay, DENV4 NS5. Particulars: GTP for AT-9010 and AT-9002, UTP for SOF-TP. The series is classed as biochemical. As for the experimental part:
as §1
The nature of regular inserted Watson-Crick nucleotides is indicated in the right of the gel. […] Quantification of band-products greater in size than the G/AT (+5) band relative to the G/AT (+5) band were measured using a Typhoon FluorImager, and allowed to calculate the discrimination value. The incorporation rates for […] and AT9002 are compared to that of GTP, and to that of UTP in the case of SOF-TP.
as §2, §3, §4, §5, §6

The target in series [3] is T3, DENV3 NS5 (Dengue virus type 3, UniProt Q6YMS4). In words: Nucleotide analogue incorporation / discrimination assay, DENV3 NS5. The format is biochemical. Particulars: GTP for AT-9010 and AT-9002, UTP for SOF-TP. Here is the method: as §1, §2, §3, §4, §5, §6
T3 sequence (Q6YMS4 2491-3390): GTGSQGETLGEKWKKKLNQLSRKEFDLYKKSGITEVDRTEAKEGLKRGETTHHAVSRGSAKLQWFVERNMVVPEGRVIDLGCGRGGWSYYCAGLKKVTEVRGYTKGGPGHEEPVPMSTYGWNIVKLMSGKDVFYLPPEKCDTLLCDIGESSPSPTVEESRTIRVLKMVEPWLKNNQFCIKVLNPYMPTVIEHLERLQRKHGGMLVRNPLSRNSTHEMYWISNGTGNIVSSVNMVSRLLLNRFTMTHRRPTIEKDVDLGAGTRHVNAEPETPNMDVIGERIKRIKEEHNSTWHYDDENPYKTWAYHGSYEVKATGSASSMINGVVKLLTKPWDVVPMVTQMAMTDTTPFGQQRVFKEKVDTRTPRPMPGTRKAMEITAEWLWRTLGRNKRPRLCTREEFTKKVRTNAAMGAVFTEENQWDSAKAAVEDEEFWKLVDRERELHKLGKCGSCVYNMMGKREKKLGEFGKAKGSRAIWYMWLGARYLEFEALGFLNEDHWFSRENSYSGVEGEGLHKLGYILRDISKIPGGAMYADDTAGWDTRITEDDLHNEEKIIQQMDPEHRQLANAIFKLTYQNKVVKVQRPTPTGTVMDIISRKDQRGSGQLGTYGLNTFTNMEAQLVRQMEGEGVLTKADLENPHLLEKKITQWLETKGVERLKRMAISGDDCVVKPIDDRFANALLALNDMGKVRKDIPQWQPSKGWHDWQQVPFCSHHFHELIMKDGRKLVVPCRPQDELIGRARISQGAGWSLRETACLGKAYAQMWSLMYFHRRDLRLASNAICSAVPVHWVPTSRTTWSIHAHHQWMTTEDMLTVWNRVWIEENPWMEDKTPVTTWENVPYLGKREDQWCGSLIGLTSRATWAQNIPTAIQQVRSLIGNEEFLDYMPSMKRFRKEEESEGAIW
In series [4] the target is T4, DENV2 NS5 (Dengue virus type 2, UniProt P14340). As to the kind of experiment: Nucleotide analogue incorporation / discrimination assay, DENV2 NS5. As to conditions: DENV2; GTP for AT-9010 and AT-9002, UTP for SOF-TP. The format is biochemical. Here is the method:
as §1
The experimental procedure is provided in Example 10.
as §2
DENV NS5 was preincubated with the annealed P10/T20 RNA in an assembly buffer containing 20 mM HEPES pH 7.5, 10% glycerol, 5 mM MgCl2 and 5 mM DTT for 10 min at 30° C. to create an active RNA elongation complex. Reactions were started by adding AT-9010 with either all four NTPs, or UTP, ATP and CTP only. […] Reactions were quenched at indicated timepoints in 2× volume FBD stop solution (formamide, 10 mM EDTA) and analysed on 20% acrylamide:bisacrylamide (19:1), […] sequencing gels. RNA products were visualized using a Typhoon FluorImager and analyzed using ImageQuant software.
as §3, §4, §5, §6

For series [5], the system named is granulocyte macrophage (GM) human bone marrow progenitor cells. As to the kind of experiment: Bone marrow progenitor cell assay, granulocyte macrophage (GM). Particulars: GM cell assay, 14 days, colonies counted.
The subject of series [6] is erythroid (E) human bone marrow progenitor cells. As to the kind of experiment: Bone marrow progenitor cell assay, erythroid (E). As to conditions: E cell assay, 14 days, colonies counted.
A further series relates to DENV1 RdRp domain. As to the kind of experiment: Thermal shift assay, DENV1 RdRp domain. Particulars: RdRp domain DENV1, 100 μM compound.
The target of series [7] is T4, DENV2 NS5. As to the kind of experiment: Thermal shift assay, DENV2 NS5. Particulars: read-out: ΔTM.
The target of another series is DENV1 MTase domain (Dengue virus type 1, UniProt P17763). As to the kind of experiment: Thermal shift assay, DENV1 MTase domain. As to conditions: read-out: ΔTM.
Chain of DENV1 MTase domain (P17763 2495-2756): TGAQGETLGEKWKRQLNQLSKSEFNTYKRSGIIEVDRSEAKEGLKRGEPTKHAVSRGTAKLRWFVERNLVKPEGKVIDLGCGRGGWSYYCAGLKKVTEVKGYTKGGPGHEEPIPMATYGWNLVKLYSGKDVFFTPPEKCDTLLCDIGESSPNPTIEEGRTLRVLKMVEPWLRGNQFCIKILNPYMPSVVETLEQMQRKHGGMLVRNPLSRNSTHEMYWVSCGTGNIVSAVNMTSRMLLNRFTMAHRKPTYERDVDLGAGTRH
The next series concerns the target DENV2 RdRp domain (Dengue virus type 2, UniProt P14340). In words: Thermal shift assay, DENV2 RdRp domain. As to conditions: read-out: ΔTM.
The target of series [8] is T3, DENV3 NS5. As to the kind of experiment: Thermal shift assay, DENV3 NS5. Particulars: read-out: ΔTM.
A further series addresses DENV4 MTase domain (Dengue virus type 4, UniProt P09866). As to the kind of experiment: Thermal shift assay, DENV4 MTase domain. Particulars: read-out: ΔTM.
In a further series the target is DENV2 MTase domain (Dengue virus type 2, UniProt P14340). As to the kind of experiment: Thermal shift assay, DENV2 MTase domain. Particulars: read-out: ΔTM.
A further series deals with DENV3 RdRp domain. In words: Thermal shift assay, DENV3 RdRp domain. As to conditions: RdRp domain DENV3, 100 μM compound.
The target in series [9] is T1, DENV1 NS5. As to the kind of experiment: Thermal shift assay, DENV1 NS5. As to conditions: read-out: ΔTM.
Another series concerns the target DENV3 MTase domain (Dengue virus type 3, UniProt Q6YMS4). As to the kind of experiment: Thermal shift assay, DENV3 MTase domain. As to conditions: read-out: ΔTM.
For the next series, the system named is DENV4 RdRp domain. In words: Thermal shift assay, DENV4 RdRp domain. As to conditions: RdRp domain DENV4, 100 μM compound.
Series [10] addresses T2, DENV4 NS5. In words: Thermal shift assay, DENV4 NS5. Particulars: read-out: ΔTM.
The test system of series [11] is human induced pluripotent stem cell (iPS) cardiomyocytes. As to the kind of experiment: Cardiomyocyte cytotoxicity assay (CellTiter Glo). As to conditions: iPS cardiomyocytes, 3 days. In general terms: Cellular ATP, detected with luciferase, serves as a proxy for viable cell number.
The subject of series [12] is NS5 RNA dependent RNA polymerase (RdRp). In words: Competitive nucleotide incorporation assays, all four DENV serotypes (summary). The series is classed as biochemical, Dengue virus. Particulars: versus native uridine triphosphate. As for the experimental part:
As described in Example 10 and shown in FIG. 1, the active metabolite of Compound 2 or Compound 1 (Compound 5) acts as a GTP analog and is incorporated into RNA by the NS5 RNA dependent RNA polymerase (RdRp), immediately terminating synthesis.
as §1

T2 sequence (P09866 2488-3387): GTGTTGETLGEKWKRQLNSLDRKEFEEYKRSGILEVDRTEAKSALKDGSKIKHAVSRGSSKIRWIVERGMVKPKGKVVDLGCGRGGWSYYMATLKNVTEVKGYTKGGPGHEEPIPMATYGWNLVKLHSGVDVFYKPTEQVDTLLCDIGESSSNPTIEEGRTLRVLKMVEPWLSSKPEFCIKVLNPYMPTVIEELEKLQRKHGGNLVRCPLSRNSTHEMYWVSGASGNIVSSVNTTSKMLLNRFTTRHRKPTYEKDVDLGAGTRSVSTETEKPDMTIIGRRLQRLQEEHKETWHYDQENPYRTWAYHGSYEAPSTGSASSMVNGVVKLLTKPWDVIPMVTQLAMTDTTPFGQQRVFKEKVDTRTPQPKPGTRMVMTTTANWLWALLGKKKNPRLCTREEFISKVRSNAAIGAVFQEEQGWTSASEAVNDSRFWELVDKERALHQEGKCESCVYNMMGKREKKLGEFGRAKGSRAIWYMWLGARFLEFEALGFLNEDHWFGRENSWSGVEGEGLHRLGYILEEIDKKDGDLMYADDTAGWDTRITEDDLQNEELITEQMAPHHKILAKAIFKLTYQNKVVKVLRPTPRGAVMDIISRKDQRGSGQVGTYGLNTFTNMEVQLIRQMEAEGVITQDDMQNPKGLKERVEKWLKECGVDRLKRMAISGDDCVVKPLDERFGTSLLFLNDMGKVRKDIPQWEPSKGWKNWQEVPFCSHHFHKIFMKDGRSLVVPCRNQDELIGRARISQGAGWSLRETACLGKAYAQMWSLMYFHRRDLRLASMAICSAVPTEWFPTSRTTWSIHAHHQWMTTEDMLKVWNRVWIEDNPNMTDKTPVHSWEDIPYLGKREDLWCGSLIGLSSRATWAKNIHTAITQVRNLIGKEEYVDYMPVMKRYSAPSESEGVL
T1 sequence (P17763 2494-3392): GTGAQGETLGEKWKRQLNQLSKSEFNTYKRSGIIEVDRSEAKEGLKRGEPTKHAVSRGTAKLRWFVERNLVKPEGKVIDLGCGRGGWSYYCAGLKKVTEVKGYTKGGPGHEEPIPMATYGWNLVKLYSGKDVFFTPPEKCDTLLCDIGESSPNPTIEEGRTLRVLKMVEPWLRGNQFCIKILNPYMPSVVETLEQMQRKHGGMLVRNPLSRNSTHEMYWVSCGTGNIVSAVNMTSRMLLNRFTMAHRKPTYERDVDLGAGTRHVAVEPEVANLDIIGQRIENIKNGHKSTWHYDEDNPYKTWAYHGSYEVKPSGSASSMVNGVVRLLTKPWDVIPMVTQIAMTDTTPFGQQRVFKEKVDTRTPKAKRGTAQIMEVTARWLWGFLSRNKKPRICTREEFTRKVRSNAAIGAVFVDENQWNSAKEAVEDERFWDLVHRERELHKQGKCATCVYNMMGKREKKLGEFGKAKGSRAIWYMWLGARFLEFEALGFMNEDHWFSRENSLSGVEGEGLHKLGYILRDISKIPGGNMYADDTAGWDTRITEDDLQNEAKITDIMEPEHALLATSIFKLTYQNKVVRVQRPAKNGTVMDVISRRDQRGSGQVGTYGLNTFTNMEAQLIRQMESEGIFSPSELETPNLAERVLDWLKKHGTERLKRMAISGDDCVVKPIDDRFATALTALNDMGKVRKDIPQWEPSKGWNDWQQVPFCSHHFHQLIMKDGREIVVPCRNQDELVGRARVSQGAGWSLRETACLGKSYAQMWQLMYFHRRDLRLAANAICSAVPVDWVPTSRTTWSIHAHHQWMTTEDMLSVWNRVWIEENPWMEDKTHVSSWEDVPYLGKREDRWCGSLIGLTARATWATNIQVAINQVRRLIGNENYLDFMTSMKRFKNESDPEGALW
Chain of DENV4 MTase domain (P09866 2489-2751): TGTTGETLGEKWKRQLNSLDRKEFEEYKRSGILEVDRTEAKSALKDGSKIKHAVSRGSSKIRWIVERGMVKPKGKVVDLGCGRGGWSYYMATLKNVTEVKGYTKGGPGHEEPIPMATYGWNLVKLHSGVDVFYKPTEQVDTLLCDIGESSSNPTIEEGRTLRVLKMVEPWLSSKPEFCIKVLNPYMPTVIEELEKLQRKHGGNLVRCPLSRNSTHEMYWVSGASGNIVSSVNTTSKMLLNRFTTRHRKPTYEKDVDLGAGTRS
Chain of DENV3 MTase domain (Q6YMS4 2492-2753): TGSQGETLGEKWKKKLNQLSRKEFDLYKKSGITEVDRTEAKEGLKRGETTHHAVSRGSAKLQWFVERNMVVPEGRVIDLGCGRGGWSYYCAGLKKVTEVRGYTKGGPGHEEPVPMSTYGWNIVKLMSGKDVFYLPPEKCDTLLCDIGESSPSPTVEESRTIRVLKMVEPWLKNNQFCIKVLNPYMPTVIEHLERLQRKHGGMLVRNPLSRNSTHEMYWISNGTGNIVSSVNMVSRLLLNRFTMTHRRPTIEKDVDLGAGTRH

Take `C[C@@]1(O)[C@H](O)[C@@H](COP(=O)(O)OP(=O)(O)OP(=O)(O)O)O[C@H]1n1cnc2c(=O)[nH]c(N)nc21` [AT-9002, 2′-methylguanosine triphosphate]: the “Preference (discrimination) native nucleotide > analogue” value is recorded as 19.4 ± 2.8 on DENV1 NS5 [1], 41.5 ± 7.3 at DENV4 NS5 [2], 17.5 ± 1.5 on DENV3 NS5 [3] and 18.2 ± 0.2 at DENV2 NS5 [4].
As usually defined, the CC50 is the concentration that lowers cell viability or growth by half. For the compound `Cc1cn([C@H]2C[C@H](N=[N+]=[N-])[C@@H](CO)O2)c(=O)[nH]c1=O` [AZT, reference compound], the CC50 came out at 2 µM in series [5] and 3 µM in [6].
What is called ΔTm is the change in melting temperature against a reference sample. For the compound `Nc1nc2c(ncn2[C@@H]2O[C@H](COP(=O)(O)OP(=O)(O)OP(=O)(O)O)[C@@H](O)[C@H]2O)c(=O)[nH]1` [GTP, guanosine triphosphate], the ΔTM in the series on DENV1 RdRp domain is 4.5±0.2 °C; with DENV3 RdRp domain, 2.2 ± 0.1 °C; with DENV4 RdRp domain, 3.3 ± 0.1 °C. In addition, the ΔTm at 100 µM came out at 5.7 ± 0.1 °C at DENV2 NS5 [7]; 4.9 ± 0.1 °C at DENV1 MTase domain; 2.4 ± 0.1 °C on DENV2 RdRp domain; 4.8 ± 0.1 °C on DENV3 NS5 [8]; 4 ± 0.1 °C on DENV4 MTase domain; 5.7 ± 0.1 °C on DENV2 MTase domain. Further, the ΔTm at 100 µM on DENV1 NS5 [9] was 5.8 ± 0.1 °C; on DENV3 MTase domain it was 4.1 ± 0.1 °C; on DENV4 NS5 [10], 3.9 ± 0.1 °C.
Consider `Nc1ncnc2c1ncn2[C@@H]1O[C@H](C[C@@H](N)CC[C@H](N)C(=O)O)[C@@H](O)[C@H]1O` [Sinefungin, sinefungin], for which the ΔTm at 100 µM at DENV2 NS5 [7] is 1.4 ± 0.1 °C; on DENV1 MTase domain, 1.9 ± 0.1 °C; at DENV2 RdRp domain it was -0.8 ± 0.1 °C; on DENV3 NS5 [8], 1.8 ± 0.1 °C; on DENV4 MTase domain, 2.8 ± 0.1 °C; at DENV2 MTase domain it was 2.9 ± 0.1 °C. Moreover, the ΔTm at 100 µM on DENV1 NS5 [9] turned out to be 1.2 ± 0.1 °C; on DENV3 MTase domain it was 2.1 ± 0.1 °C; on DENV4 NS5 [10], 1.4 ± 0.1 °C.
Consider `COc1cc2nc(N3CCN(C(=O)C4COc5ccccc5O4)CC3)nc(N)c2cc1OC` (stereo not drawn) [doxazosin, reference compound], for which the midpoint of cytotoxicity in [11], the CC50, lay at 7 µM.
Take sofosbuvir triphosphate [SOF-TP]: the “Preference (discrimination) native nucleotide > analogue” value at DENV1 NS5 [1], on DENV4 NS5 [2], at DENV3 NS5 [3] and at DENV2 NS5 [4] was above 100 each time. Also, the “incorporations into the RNA for every 100 UTP incorporations” value in series [12] is “less than 1”.
